These compounds were tested against ATP-dependent translocase ABCB1 (Homo sapiens, UniProt P08183) (assay: TP_TRANSPORTER: transepithelial transport in Caco 2 cell).
Type: functional, cell-based

ATP-dependent translocase ABCB1, sequence (P08183 whole entry): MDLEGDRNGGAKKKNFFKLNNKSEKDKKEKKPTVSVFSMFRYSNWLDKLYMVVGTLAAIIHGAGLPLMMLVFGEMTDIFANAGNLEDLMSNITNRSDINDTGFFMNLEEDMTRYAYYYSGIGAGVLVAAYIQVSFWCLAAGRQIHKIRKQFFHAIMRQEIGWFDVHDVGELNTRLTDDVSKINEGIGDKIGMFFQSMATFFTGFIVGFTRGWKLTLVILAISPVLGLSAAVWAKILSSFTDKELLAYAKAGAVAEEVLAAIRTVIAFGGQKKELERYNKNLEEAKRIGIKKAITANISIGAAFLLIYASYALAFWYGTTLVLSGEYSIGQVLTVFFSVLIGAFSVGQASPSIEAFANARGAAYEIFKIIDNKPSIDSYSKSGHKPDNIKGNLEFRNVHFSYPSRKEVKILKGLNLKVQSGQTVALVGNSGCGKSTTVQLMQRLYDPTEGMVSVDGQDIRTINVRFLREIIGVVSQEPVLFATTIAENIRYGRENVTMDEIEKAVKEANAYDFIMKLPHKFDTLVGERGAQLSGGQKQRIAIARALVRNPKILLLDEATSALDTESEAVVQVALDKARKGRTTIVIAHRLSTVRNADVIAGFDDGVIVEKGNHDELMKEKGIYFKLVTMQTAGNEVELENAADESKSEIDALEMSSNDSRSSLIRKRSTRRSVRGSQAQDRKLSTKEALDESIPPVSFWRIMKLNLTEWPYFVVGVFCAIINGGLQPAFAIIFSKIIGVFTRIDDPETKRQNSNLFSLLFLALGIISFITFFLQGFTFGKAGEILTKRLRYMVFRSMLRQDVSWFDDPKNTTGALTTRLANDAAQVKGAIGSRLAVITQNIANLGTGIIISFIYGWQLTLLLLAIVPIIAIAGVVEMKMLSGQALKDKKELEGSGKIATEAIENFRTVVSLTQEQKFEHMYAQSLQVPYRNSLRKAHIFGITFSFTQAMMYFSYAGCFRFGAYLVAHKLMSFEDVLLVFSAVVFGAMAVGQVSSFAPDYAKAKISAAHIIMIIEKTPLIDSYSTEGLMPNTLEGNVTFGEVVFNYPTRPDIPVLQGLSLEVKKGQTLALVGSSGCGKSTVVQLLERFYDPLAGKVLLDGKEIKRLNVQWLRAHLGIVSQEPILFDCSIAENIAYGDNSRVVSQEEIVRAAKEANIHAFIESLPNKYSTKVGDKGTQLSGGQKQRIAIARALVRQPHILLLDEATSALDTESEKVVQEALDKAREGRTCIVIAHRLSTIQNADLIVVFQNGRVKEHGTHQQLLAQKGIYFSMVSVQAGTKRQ

| Activity | Compound |
| --- | --- |
| substrate [+] | C[C@H]1O[C@@H](O[C@H]2[C@@H](O)C[C@H](O[C@H]3[C@@H](O)C[C@H](O[C@H]4CC[C@@]5(C)[C@H](CC[C@@H]6[C@@H]5C[C@@H](O)[C@]5(C)[C@@H](C7=CC(=O)OC7)CC[C@]65O)C4)O[C@@H]3C)O[C@@H]2C)C[C@H](O)[C@@H]1O [DIGOXIN] |
| substrate [+] | CC(=O)O[C@H]1C(=O)[C@@]2(C)[C@H]([C@H](OC(=O)c3ccccc3)[C@]3(O)C[C@H](OC(=O)[C@H](O)[C@@H](NC(=O)c4ccccc4)c4ccccc4)C(C)=C1C3(C)C)[C@]1(OC(C)=O)CO[C@@H]1C[C@@H]2O [PACLITAXEL] |
| substrate [+] | CO[C@H]1/C=C/O[C@@]2(C)Oc3c(C)c(O)c4c(O)c(c(/C=N/N5CCN(C)CC5)c(O)c4c3C2=O)NC(=O)/C(C)=C\C=C\[C@H](C)[C@H](O)[C@@H](C)[C@@H](O)[C@@H](C)[C@H](OC(C)=O)[C@@H]1C [RIFAMPIN] |
| substrate [+] | CC(C)(C)NC(=O)[C@@H]1C[C@@H]2CCCC[C@@H]2CN1C[C@@H](O)[C@H](Cc1ccccc1)NC(=O)[C@H](CC(N)=O)NC(=O)c1ccc2ccccc2n1 [SAQUINAVIR] |

Second part, the compound before the results:

| Compound | Activity |
| --- | --- |
| C=CCNc1nc(NCC=C)nc(N2CCC(NCC(c3ccc(F)cc3)c3ccc(F)cc3)CC2)n1 | substrate [+] |
| NS(=O)(=O)N1CCN(C2CN(CC[C@]3(c4ccc(Cl)c(Cl)c4)CCC(=O)N(CC4CC4)C3)C2)CC1 | substrate [+] |
| CC[C@@]1(O)C(=O)OCc2c1cc1n(c2=O)Cc2cc3c(CN(C)C)c(O)ccc3nc2-1 [TOPOTECAN] | substrate [+] |
| C=CC[C@@H]1/C=C(\C)C[C@H](C)C[C@H](OC)[C@H]2O[C@@](O)(C(=O)C(=O)N3CCCC[C@H]3C(=O)O[C@H](/C(C)=C/[C@@H]3CC[C@@H](O)[C@H](OC)C3)[C@H](C)[C@@H](O)CC1=O)[C@H](C)C[C@@H]2OC [TACROLIMUS ANHYDROUS] | substrate [+] |

Reference: ChEMBL document CHEMBL2074337, “Predicting P-glycoprotein effects on oral absorption: correlation of transport in Caco-2 with drug pharmacokinetics in wild-type and mdr1a(-/-) mice in vivo” (Pharm Res, 2004)
